Laboratory results taken from patent US20020137929A1, “1 - (3-heterocyclylphenyl) isothiourea, -isourea, -guanidine and -amidine herbicidal agents” (Intellectual Property Department, BASF Aktiengesellschaft, priority 1998, published 2002).

Legend:
AMBEL (Ragweed, Common) = test: Postemergence herbicidal evaluation; format: in vivo, Ambrosia artemisifolia; conditions: postemergence
How it was run: (§1)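 Seedlings grown about two weeks were sprayed at 40 psi with compound dispersed in 50/50 acetone/water plus 0.5% TWEEN 20, at about 0.0156 to 0.500 kg/ha. Plants were kept in the greenhouse and scored 4–5 weeks later on a 0–9 visual scale against untreated controls.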

CASOB (Sicklepod) [1] = test: Postemergence herbicidal evaluation; format: in vivo, Cassia obtusifolia; conditions: postemergence
How it was run: as §1

[2] = system: CHEAL (Lambsquarters, Common); test: Postemergence herbicidal evaluation; format: in vivo, Chenopodium album; conditions: postemergence
How it was run: as §1

GALAP (Galium) [3] = test: Postemergence herbicidal evaluation; format: in vivo, Galium aparine; conditions: postemergence
How it was run: as §1

ECHCG (Barnyardgrass) = test: Postemergence herbicidal evaluation; format: in vivo, Echinochloa crus-galli; conditions: postemergence
How it was run: as §1

SETVI (Foxtail, Green) = test: Postemergence herbicidal evaluation; format: in vivo, Setaria viridis; conditions: postemergence
How it was run: as §1

[4] = system: GLXMAW (Soybean, Williams); test: Postemergence herbicidal evaluation; format: in vivo, Glycine max, (L.) Merr. cv Williams; conditions: postemergence
How it was run: as §1

ORYSAT (Rice, Tebonnet) = test: Postemergence herbicidal evaluation; format: in vivo, Oryza sativa, (L.) Tebonnet; conditions: postemergence
How it was run: as §1

CASOB (Sicklepod) [5] = test: Preemergence herbicidal evaluation; format: in vivo, Cassia obtusifolia; conditions: rated 4-5 weeks after treatment
How it was run: (§2)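 Sown cups got a single aqueous acetone spray of test compound (roughly 0.0156–0.500 kg/ha) before seedlings emerged. Evaluation, 4–5 weeks on, used a 0–9 visual scale covering plant stand, vigor, size, malformation, chlorosis and general appearance compared with controls.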

GALAP (Galium) [6] = test: Preemergence herbicidal evaluation; format: in vivo, Galium aparine; conditions: rated 4-5 weeks after treatment
How it was run: as §2

ZEAMX (Corn, Field) = test: Preemergence herbicidal evaluation; format: in vivo, Zea mays; conditions: rated 4-5 weeks after treatment
How it was run: as §2

CYPIR (Rice Flatsedge) = test: Preemergence weed control under flooded paddy conditions; format: in vivo, Cyperus iria; conditions: rated 3-4 weeks after treatment
How it was run: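 Visual injury scored 0-9 against control three to four weeks post-treatment, greenhouse-grown. Application: acetone/water (50/50) solutions dosed directly into flood water (1.5-3 cm over silt loam, planted top 0.5 cm), roughly 0.0313 to 0.500 kg/ha active ingredient.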

CYPSE (Flatsedge) = test: as above; format: in vivo, Cyperus serotinus; conditions: rated 3-4 weeks after treatment
How it was run: (§3)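 Ratings on a 0-9 visual scale cover stand, vigor, malformation, size, chlorosis and overall appearance relative to a control, taken three to four weeks post-treatment. Application was into flood water over freshly sown silt loam at roughly 0.0313 to 0.500 kg/ha.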

[7] = system: SAGPY (Arrowhead (Pygmaea)); test: as above; format: in vivo, Sagittaria pygmaea; conditions: rated 3-4 weeks after treatment
How it was run: as §3

SMILES: CCOC(=O)CN1C(=O)C(C(=O)OC(C)(C)C)SC1=Nc1cc(-n2c(=O)cc(C(F)(F)F)n(C)c2=O)c(F)cc1Cl (centres unmarked) [Compound 167, 5-Carboxy-2-{{2-chloro-5-[3,6-dihydro-3-methyl-2,6-dioxo-4-(trifluoromethyl)-1(2H)-pyrimidinyl]-4-fluorophenyl}imino}-4-oxo-3-thiazolidineacetic acid, 5-tert-butyl ethyl ester]
- Herbicidal rating AMBEL (AMBEL (Ragweed, Common); rate 0.0156 kg/ha): 4.0
- Herbicidal rating AMBEL (AMBEL (Ragweed, Common); rate 0.0313 kg/ha): 7.0
- Herbicidal rating AMBEL (AMBEL (Ragweed, Common); rate 0.0625 kg/ha): 9.0
- Herbicidal rating AMBEL (AMBEL (Ragweed, Common); rate 0.1250 kg/ha): 7.0
- Herbicidal rating CASOB (CASOB (Sicklepod) [1]; rate 0.0156 kg/ha): 1.0
- Herbicidal rating CASOB (CASOB (Sicklepod) [1]; rate 0.0313 kg/ha): 2.0
- Herbicidal rating CASOB (CASOB (Sicklepod) [1]; rate 0.0625 kg/ha): 1.0
- Herbicidal rating CASOB (CASOB (Sicklepod) [1]; rate 0.1250 kg/ha): 4.0
- Herbicidal rating CHEAL ([2]; rate 0.0156 kg/ha): 4.0
- Herbicidal rating CHEAL ([2]; rate 0.0313 kg/ha): 7.0
- Herbicidal rating CHEAL ([2]; rate 0.0625 kg/ha): 9.0
- Herbicidal rating CHEAL ([2]; rate 0.1250 kg/ha): 9.0
- Herbicidal rating GALAP (GALAP (Galium) [3]; rate 0.0156 kg/ha): 2.0
- Herbicidal rating GALAP (GALAP (Galium) [3]; rate 0.0313 kg/ha): 3.0
- Herbicidal rating GALAP (GALAP (Galium) [3]; rate 0.0625 kg/ha): 4.0
- Herbicidal rating GALAP (GALAP (Galium) [3]; rate 0.1250 kg/ha): 4.0
- Herbicidal rating ECHCG (ECHCG (Barnyardgrass); rate 0.0156 kg/ha): 3.0
- Herbicidal rating ECHCG (ECHCG (Barnyardgrass); rate 0.0313 kg/ha): 3.0
- Herbicidal rating ECHCG (ECHCG (Barnyardgrass); rate 0.0625 kg/ha): 3.0
- Herbicidal rating ECHCG (ECHCG (Barnyardgrass); rate 0.1250 kg/ha): 3.0
- Herbicidal rating SETVI (SETVI (Foxtail, Green); rate 0.0156 kg/ha): 2.0
- Herbicidal rating SETVI (SETVI (Foxtail, Green); rate 0.0313 kg/ha): 4.0
- Herbicidal rating SETVI (SETVI (Foxtail, Green); rate 0.0625 kg/ha): 9.0
- Herbicidal rating SETVI (SETVI (Foxtail, Green); rate 0.1250 kg/ha): 9.0
- Herbicidal rating GLXMAW ([4]; rate 0.0156 kg/ha): 5.0
- Herbicidal rating GLXMAW ([4]; rate 0.0313 kg/ha): 6.0
- Herbicidal rating GLXMAW ([4]; rate 0.0625 kg/ha): 6.5
- Herbicidal rating GLXMAW ([4]; rate 0.1250 kg/ha): 6.5
- Herbicidal rating ORYSAT (ORYSAT (Rice, Tebonnet); rate 0.0156 kg/ha): 3.0
- Herbicidal rating ORYSAT (ORYSAT (Rice, Tebonnet); rate 0.0313 kg/ha): 3.5
- Herbicidal rating ORYSAT (ORYSAT (Rice, Tebonnet); rate 0.0625 kg/ha): 3.5
- Herbicidal rating ORYSAT (ORYSAT (Rice, Tebonnet); rate 0.1250 kg/ha): 4.0
- Preemergence herbicidal rating CASOB (CASOB (Sicklepod) [5]; 0.0156 kg/ha): 0.0
- Preemergence herbicidal rating CASOB (CASOB (Sicklepod) [5]; 0.0313 kg/ha): 0.0
- Preemergence herbicidal rating CASOB (CASOB (Sicklepod) [5]; 0.0625 kg/ha): 1.0
- Preemergence herbicidal rating CASOB (CASOB (Sicklepod) [5]; 0.1250 kg/ha): 1.0
- Preemergence herbicidal rating CASOB (CASOB (Sicklepod) [5]; 0.2500 kg/ha): 4.0
- Preemergence herbicidal rating CASOB (CASOB (Sicklepod) [5]; 0.5000 kg/ha): 9.0
- Preemergence herbicidal rating GALAP (GALAP (Galium) [6]; 0.0156 kg/ha): 1.0
- Preemergence herbicidal rating GALAP (GALAP (Galium) [6]; 0.0313 kg/ha): 5.0
- Preemergence herbicidal rating GALAP (GALAP (Galium) [6]; 0.0625 kg/ha): 7.0
- Preemergence herbicidal rating GALAP (GALAP (Galium) [6]; 0.1250 kg/ha): 9.0
- Preemergence herbicidal rating GALAP (GALAP (Galium) [6]; 0.2500 kg/ha): 6.0
- Preemergence herbicidal rating GALAP (GALAP (Galium) [6]; 0.5000 kg/ha): 7.0
- Preemergence herbicidal rating ZEAMX (ZEAMX (Corn, Field); 0.0156 kg/ha): 0.0
- Preemergence herbicidal rating ZEAMX (ZEAMX (Corn, Field); 0.0313 kg/ha): 0.0
- Preemergence herbicidal rating ZEAMX (ZEAMX (Corn, Field); 0.0625 kg/ha): 3.0
- Preemergence herbicidal rating ZEAMX (ZEAMX (Corn, Field); 0.1250 kg/ha): 3.0
- Preemergence herbicidal rating ZEAMX (ZEAMX (Corn, Field); 0.2500 kg/ha): 6.0
- Preemergence herbicidal rating ZEAMX (ZEAMX (Corn, Field); 0.5000 kg/ha): 7.0
- herbicidal effect rating, CYPIR (CYPIR (Rice Flatsedge); 0.0313 kg/ha): 7.0
- herbicidal effect rating, CYPIR (CYPIR (Rice Flatsedge); 0.0625 kg/ha): 9.0
- herbicidal effect rating, CYPIR (CYPIR (Rice Flatsedge); 0.1250 kg/ha): 9.0
- herbicidal effect rating, CYPIR (CYPIR (Rice Flatsedge); 0.2500 kg/ha): 9.0
- herbicidal effect rating, CYPSE (CYPSE (Flatsedge); 0.0313 kg/ha): 0.0
- herbicidal effect rating, CYPSE (CYPSE (Flatsedge); 0.0625 kg/ha): 0.0
- herbicidal effect rating, CYPSE (CYPSE (Flatsedge); 0.1250 kg/ha): 3.0
- herbicidal effect rating, CYPSE (CYPSE (Flatsedge); 0.2500 kg/ha): 5.0
- herbicidal effect rating, SAGPY ([7]; 0.0313 kg/ha): 4.0
- herbicidal effect rating, SAGPY ([7]; 0.0625 kg/ha): 5.0
- herbicidal effect rating, SAGPY ([7]; 0.1250 kg/ha): 6.0
- herbicidal effect rating, SAGPY ([7]; 0.2500 kg/ha): 7.0
